Values after ≈ are worked out from the molar mass of the structure shown.
Assays:
Pr. vulgaris, 3167 = experiment: antimicrobial activity, MIC, standard process of Japan Society of Chemotherapy; format: cell-based; conditions: for MIC: Proteus vulgaris, 3167, Pr. vulgaris, read-out: minimum growth inhibitory concentration (MIC); for minimum growth inhibitory concentration (MIC): Pr. vulgaris
Experimental: (§1) The antimicrobial activities of the compounds of the present invention were determined according to a standard process designated by the Japan Society of Chemotherapy and the minimum growth inhibitory concentrations (MIC) (μg/ml) the compounds were determined.

S. epidermidis, 56500 = experiment: as above; format: cell-based; conditions: for MIC: Staphylococcus epidermidis, 56500, S. epidermidis, read-out: minimum growth inhibitory concentration (MIC); for minimum growth inhibitory concentration (MIC): S. epidermidis
Experimental: as §1

Str. pyogenes, G-36 = experiment: as above; format: cell-based; conditions: for minimum growth inhibitory concentration (MIC): Str. pyogenes
Experimental: as §1

Sh. flexneri, 2a5503 = experiment: as above; format: cell-based; conditions: for MIC: Shigella flexneri, read-out: minimum growth inhibitory concentration (MIC)
Experimental: as §1

[1] = tested on: Str. faecalis, ATCC 19433; experiment: as above; format: cell-based; conditions: for MIC: Enterococcus faecalis, ATCC19433, Str. faecalis, read-out: minimum growth inhibitory concentration (MIC); for minimum growth inhibitory concentration (MIC): Str. faecalis
Experimental: as §1

Ps. cepacia, IID1340 = experiment: as above; format: cell-based; conditions: for MIC: Burkholderia cepacia, IID1340, Ps. cepacia, read-out: minimum growth inhibitory concentration (MIC)
Experimental: as §1

E. coli, NIHJ = experiment: as above; format: cell-based; conditions: for MIC: Escherichia coli, read-out: minimum growth inhibitory concentration (MIC)
Experimental: as §1

Ps. maltophilia, IID1275 = experiment: as above; format: cell-based; conditions: for MIC: Stenotrophomonas maltophilia, IID1275, Ps. maltophilia, read-out: minimum growth inhibitory concentration (MIC)
Experimental: as §1

Pr. mirabilis, IF03849 = experiment: as above; format: cell-based; conditions: for MIC: Proteus mirabilis, IF03849, Pr. mirabilis, read-out: minimum growth inhibitory concentration (MIC); for minimum growth inhibitory concentration (MIC): Pr. mirabilis
Experimental: as §1

Ps. aeruginosa, 2128 = experiment: as above; format: cell-based; conditions: for MIC: Pseudomonas aeruginosa, 2128, Ps. aeruginosa, read-out: minimum growth inhibitory concentration (MIC)
Experimental: as §1

Ser. marcescens, 13001 = experiment: as above; format: cell-based; conditions: for MIC: Serratia marcescens, 13001, Ser. marcescens, read-out: minimum growth inhibitory concentration (MIC)
Experimental: as §1

S. aureus, 209P = experiment: as above; format: cell-based; conditions: for MIC: Staphylococcus aureus, read-out: minimum growth inhibitory concentration (MIC)
Experimental: as §1

Ps. aeruginosa, 2063 = experiment: as above; format: cell-based; conditions: for MIC: Pseudomonas aeruginosa, 2063, Ps. aeruginosa, read-out: minimum growth inhibitory concentration (MIC)
Experimental: as §1

physchem = format: physicochemical; conditions: water
Experimental: (§2) The water-solubility and acute toxicity of the compounds of the present invention and the comparative compounds, were measured. The results obtained are shown hereunder. The water-solubility was measured by the following method.
(i) Preparation of standard solution
About 400 μg of the sample to be measured was accurately weighed (the weight was defined as W μg), and 0.1N NaOH solution was added thereto to bring the whole volume to 50 ml. The UV absorbance of a given amount of the solution was measured and the measured absorbance was defined as A1.
(ii) Preparation of sample to be measured
Distilled water was added to the sample to be measured (fine powder) in such amount that the sample was not completely dissolved but suspended, and then the suspension was vigorously agitated at room temperature (between 23° and 26° C.) for 30 minutes. Insoluble matter of the sample was removed therefrom by filtration, after which 3 ml sample of the filtrate (satulated aqueous solution of the sample) was taken. 3 ml of 0.2N NaOH solution was added to the filtrate sample to bring the total volume to 6 ml (i.e. the filtrate was diluted to 50% concentration.) To 1 ml of the resulting solution, 0.1N NaOH solution was further added to bring the total volume to 25 ml […]. In this connection, degree of dilution was occasionally changed, depending on degree of UV absorbance. The UV absorbance of the given amount of the solution was measured and the resulting absorbance was defined to as A2. Where the number of dilution is N, water-solubility (s) is obtained from the following equation: [formula]

mouse = experiment: acute toxicity to mouse; format: in vivo; conditions: 200 mg/kg; i.v.
Experimental: as §2
*200 mg/kg; i.v, (deaths/total number) As is obvious from the above

[2] = absorption after oral administration to rats; format: in vivo; conditions: rat, 20 mg/kg
Experimental: The compounds of the present invention and the comparative compound were orally given to rats (one group: 5 rats) at a dose of 20 mg/kg to measure the oral absorption of the compounds. The concentration of the compound in the blood of the rat was measured at 15 minutes, 30 minutes, and 1, 2, 3, 4, and 6 hours after administration.
Serum half lives (T1/2) were calculated as 0.693/Kel, where Kel is the elimination rate constant determined by linear regression analysis of the natural logarithm of serum concentration-time data. The area under the serum concentration-versus time curve from zero to 6 h (AUC0-6H) was calculated by the trapezoidal method, The results obtained are as follows: […]

| SMILES | MIC (Pr. vulgaris, 3167) [µg/mL] | MIC (S. epidermidis, 56500) [µg/mL] | minimum growth inhibitory concentration (MIC) (Str. pyogenes, G-36) [µg/mL] | MIC (Sh. flexneri, 2a5503) [µg/mL] | MIC [1] [µg/mL] | MIC (Ps. cepacia, IID1340) [µg/mL] | MIC (E. coli, NIHJ) [µg/mL] | MIC (Ps. maltophilia, IID1275) [µg/mL] | MIC (Pr. mirabilis, IF03849) [µg/mL] | MIC (Ps. aeruginosa, 2128) [µg/mL] | MIC (Ser. marcescens, 13001) [µg/mL] | MIC (S. aureus, 209P) [µg/mL] | MIC (Ps. aeruginosa, 2063) [µg/mL] | minimum growth inhibitory concentration (MIC) [1] [µg/mL] | minimum growth inhibitory concentration (MIC) (Pr. mirabilis, IF03849) [µg/mL] | minimum growth inhibitory concentration (MIC) (Pr. vulgaris, 3167) [µg/mL] | minimum growth inhibitory concentration (MIC) (S. epidermidis, 56500) [µg/mL] | further results |
| --- | --- | --- | --- | --- | --- | --- | --- | --- | --- | --- | --- | --- | --- | --- | --- | --- | --- | --- |
| CCC(N)C1CCN(c2c(F)cc3c(=O)c(C(=O)O)cn(C4CC4)c3c2F)C1 (stereo not shown) [Example 9, 7-[3-(1-Aminopropyl)-1-pyrrolidinyl]-1-cyclopropyl-6,8-difluoro-1,4-dihydro-4-oxoquinoline-3-carboxylic acid] | ≤ 0.05 | ≤ 0.05 | ≤ 0.05 | ≤ 0.05 | 0.1 (≈ 0.255 µM) | 0.39 (≈ 0.996 µM) | ≤ 0.05 | 0.1 (≈ 0.255 µM) | 0.1 (≈ 0.255 µM) | 0.2 (≈ 0.511 µM) | ≤ 0.05 | ≤ 0.05 | 0.78 (≈ 1.99 µM) | – | – | – | – | – |
| CNC(C)C1CCN(c2c(F)cc3c(=O)c(C(=O)O)cn(C4CC4)c3c2F)C1 (single isomer, unassigned) [Example 6, 1-Cyclopropyl-6,8-difluoro-1,4-dihydro-7-[3-(1-methylaminoethyl)-1-pyrrolidinyl]-4-oxoquinoline-3-carboxylic acid] | 0.1 (≈ 0.255 µM) | 0.1 (≈ 0.255 µM) | 0.20 | ≤ 0.05 | – | 0.78 (≈ 1.99 µM) | ≤ 0.05 | 0.2 (≈ 0.511 µM) | – | 0.2 (≈ 0.511 µM) | 0.2 (≈ 0.511 µM) | ≤ 0.05 | 0.39 (≈ 0.996 µM) | 0.20 | 0.20 | – | – | – |
| CNC(C)C1CCN(c2c(F)cc3c(=O)c(C(=O)O)cn(C4CC4)c3c2F)C1 (single isomer, unassigned) [Example 7] | – | – | ≤ 0.05 | – | – | – | – | – | – | – | – | – | – | ≤ 0.05 | ≤ 0.05 | ≤ 0.05 | ≤ 0.05 | minimum growth inhibitory concentration (MIC) (Sh. flexneri, 2a5503): ≤ 0.05 µg/mL; minimum growth inhibitory concentration (MIC) (Ps. cepacia, IID1340; Ps. cepacia): 0.78 µg/mL; minimum growth inhibitory concentration (MIC) (E. coli, NIHJ): ≤ 0.05 µg/mL; minimum growth inhibitory concentration (MIC) (Ps. maltophilia, IID1275; Ps. maltophilia): 0.20 µg/mL; minimum growth inhibitory concentration (MIC) (Ps. aeruginosa, 2128; Ps. aeruginosa): 0.10 µg/mL; minimum growth inhibitory concentration (MIC) (Ser. marcescens, 13001; Ser. marcescens): 0.10 µg/mL; minimum growth inhibitory concentration (MIC) (S. aureus, 209P): ≤ 0.05 µg/mL; minimum growth inhibitory concentration (MIC) (Ps. aeruginosa, 2063; Ps. aeruginosa): 0.20 µg/mL; solubility at 0.5 h (physchem): 710 µg/mL (≈ 1810 µM); Acute toxicity to mouse (mouse): 1/5; half-life ([2]; serum half life, 0.693/Kel): 2.01 h; Cmax ([2]; serum, 5 rats per group): 2210 ng/mL; AUC(0-t) at 6 h ([2]; serum, zero to 6 h, trapezoidal method, read-out: AUC0-6H): 6310 ng·h/mL |
| CCn1cc(C(=O)O)c(=O)c2cc(F)c(N3CCC(C(C)N)C3)c(F)c21 (single isomer, unassigned) [Example 3, 7-[3-(1-Aminoethyl)-1-pyrrolidinyl]-1-ethyl-6,8-difluoro-1,4-dihydro-4-oxoquinoline-3-carboxylic acid] | – | – | 0.39 | ≤ 0.05 | – | 1.56 (≈ 4.27 µM) | ≤ 0.05 | 0.78 (≈ 2.13 µM) | 0.2 (≈ 0.547 µM) | 0.2 (≈ 0.547 µM) | 0.2 (≈ 0.547 µM) | ≤ 0.05 | 0.39 (≈ 1.07 µM) | 0.39 | – | 0.20 | 0.20 | – |
| NC1(C2CCN(c3c(F)cc4c(=O)c(C(=O)O)cn(C5CC5)c4c3F)C2)CC1 (stereo not shown) [Example 15] | 0.1 (≈ 0.257 µM) | ≤ 0.05 | – | ≤ 0.05 | 0.2 (≈ 0.514 µM) | 0.39 (≈ 1 µM) | ≤ 0.05 | 0.2 (≈ 0.514 µM) | 0.2 (≈ 0.514 µM) | 0.2 (≈ 0.514 µM) | 0.2 (≈ 0.514 µM) | ≤ 0.05 | 0.39 (≈ 1 µM) | – | – | – | – | MIC (Str. pyogenes, G-36; Streptococcus pyogenes, G36, Str. pyogenes, read-out: minimum growth inhibitory concentration (MIC)): ≤ 0.05 µg/mL |
